From patent US6664277B1, “Prenylation inhibitors containing dimethylcyclobutane and methods of their synthesis and use” (PPD Discovery, Inc., priority 2002, dated 2003)

These compounds were tested against T1, GGPTase I (Rattus norvegicus, UniProt P53610+Q04631) (assay: GGPTase I inhibition assay ([3H]GGPP transfer to Ras-CVLL)). Conditions: Table I; test compound 100 nM; mixtures of regioisomers and/or enantiomers unless indicated.
T1 construct: made in house; host or cells: Sf9 insect cells (baculovirus co-infection)
T1 sequence (P53610 whole entry, one chain of several): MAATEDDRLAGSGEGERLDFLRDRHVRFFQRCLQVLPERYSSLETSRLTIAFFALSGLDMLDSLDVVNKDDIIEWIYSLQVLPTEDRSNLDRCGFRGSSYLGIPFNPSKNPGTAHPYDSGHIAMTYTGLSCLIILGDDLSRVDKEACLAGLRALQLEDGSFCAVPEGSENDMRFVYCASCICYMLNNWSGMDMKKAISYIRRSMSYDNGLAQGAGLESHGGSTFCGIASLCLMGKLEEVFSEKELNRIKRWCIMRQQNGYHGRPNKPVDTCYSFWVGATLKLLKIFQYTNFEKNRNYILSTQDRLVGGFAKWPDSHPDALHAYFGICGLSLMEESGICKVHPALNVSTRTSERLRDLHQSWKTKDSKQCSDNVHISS
Format: biochemical
Method: GGPTase-I activity was determined by the method of Casey et al, Proc. Natl. Acad. Sci. USA, 1991, 88, 8631-8635. This method measures the transfer of isoprenoid from ^3H-geranylgeranyl diphosphate (GGPP) into a Ras protein with a C-terminal leucine-for-serine substitution (designated as Ras-CVLL).
Assays for the inhibition studies of GGPTase I were performed in a manner analogous to that described by Casey, et al., Proc. Natl. Acad. Sci. USA, 1991, 88, 8631-8635, with the following modifications. For those assays, the reaction mixtures contained the following components in 50 μl:0.25 μM [^3H]GGPP (sp. act. 8-10 Ci/mmol), 2.5 μM Ras-CVLL, 50 mM Tris-Cl, pH 7.7, 20 mM KCl, 5 mM MgCl2, 5 μM ZnCl2, 1 mM DTT, 0.5 mM Zwittergent 3-14 and the desired amount of the compound to be tested for inhibitory potential. After pre-equilibrating the assay mixture at 30° C. in the absence of the enzyme, the reaction was initiated by addition of the enzyme (75 ng). Following an about 10 minute incubation at about 30° C., the reactions were terminated by addition of about 0.5 ml of about 4% SDS. About 40 mg of bovine brain membranes was added to the samples to enhance recovery during precipitation. Product was precipitated by addition of about 0.5 ml of 30% TCA, allowed to stand at room temperature for about 15 minutes, and processed by filtration through glass-fiber filters as described previously (Reiss et al., Methods: Companion to Methods in Enzymology, 1991, 1, 241-245). Reactions were never allowed to proceed to more than 10% completion based on the limiting substrate. Assays for the inhibition studies of FPTase were performed analogous the GGPTase I inhibition studies, except [^3H]GGPP was replaced with 0.25 μM of [^3H]FPP (sp. act. 8-10 ci/mmol) and Ras-CVLL was replaced with 1 μM H-Ras.
Using the method described above, the GGPTase I inhibitory activities of some of the compounds of the present invention were evaluated. The concentration of the test compound used was 100 nM. Mixtures of regioisomers and/or enantiomers are used unless indicated otherwise (for example, the position of substituents on the dimethyl cyclobutane moiety).

| Inhibition | SMILES |
| --- | --- |
| Yes | CN1Cc2ccccc2C[C@H]1C(N)=O |
| Yes | CN1CC[C@H](c2ccccc2)[C@H]1C(N)=O |

Same assay, conditions: Table II; test compound 100 nM; mixtures of regioisomers and/or enantiomers unless indicated

| SMILES | Inhibition |
| --- | --- |
| CC1(C)[C@@H](CC(=O)NC(Cc2ccccc2)C(=O)OCc2ccccc2)C[C@@H]1c1cc(-c2cccnc2)nn1-c1ccc(Cl)c(Cl)c1 (stereo partly shown) [CO2Bn] | yes |
| COC(=O)C(Cc1ccccc1)NC(=O)C[C@H]1C[C@H](c2cc(-c3cccnc3)nn2-c2ccc(Cl)c(Cl)c2)C1(C)C (stereo partly shown) [CO2Me] | yes |
| CC1(C)[C@@H](CC(=O)NC(CO)Cc2ccccc2)C[C@@H]1c1cc(-c2cccnc2)nn1-c1ccc(Cl)c(Cl)c1 (stereo partly shown) [CH2OH] | yes |
| CNC(=O)C(Cc1ccccc1)NC(=O)C[C@H]1C[C@H](c2cc(-c3cccnc3)nn2-c2ccc(Cl)c(Cl)c2)C1(C)C (stereo partly shown) [CONHMe] | yes |

The next lines start with the values.

| Inhibition | SMILES |
| --- | --- |
| yes | CC1(C)[C@@H](CC(=O)NC(Cc2ccccc2)C(=O)O)C[C@@H]1c1cc(-c2cccnc2)nn1-c1ccc(Cl)c(Cl)c1 (stereo partly shown) [CO2H] |
| yes | CC1(C)[C@@H](CC(=O)NCCc2ccccc2)C[C@@H]1c1cc(-c2cccnc2)nn1-c1ccc(Cl)c(Cl)c1 [H] |
| yes | CC1(C)[C@@H](CC(=O)NC(Cc2ccccc2)C(N)=O)C[C@@H]1c1cc(-c2cccnc2)nn1-c1ccc(Cl)c(Cl)c1 (stereo partly shown) [CONH2] |

Same assay, conditions: Table V; test compound 100 nM; mixtures of regioisomers and/or enantiomers unless indicated

| Inhibition | SMILES |
| --- | --- |
| yes | CC1(C)[C@@H](CC(=O)NC(Cc2ccccc2)C(N)=O)C[C@@H]1c1cc(-c2cccnc2)nn1-c1ccc(Cl)c(Cl)c1 (stereo partly shown) [Bn] |
| yes | CC1(C)[C@@H](CC(=O)NC(C(N)=O)c2ccccc2)C[C@@H]1c1cc(-c2cccnc2)nn1-c1ccc(Cl)c(Cl)c1 (stereo partly shown) [Ph] |
| yes | CC1(C)[C@@H](CC(=O)NCCc2ccccc2)C[C@@H]1c1cc(-c2cccnc2)nn1-c1ccc(Cl)c(Cl)c1 [H] |
| yes | CC1(C)[C@@H](CC(=O)NC(CO)Cc2ccccc2)C[C@@H]1c1cc(-c2cccnc2)nn1-c1ccc(Cl)c(Cl)c1 (stereo partly shown) [CH2OH] |

Same assay, conditions: Table VI; test compound 100 nM; mixtures of regioisomers and/or enantiomers unless indicated

| Inhibition | SMILES |
| --- | --- |
| yes | CN(C(=O)C[C@H]1C[C@H](c2cc(-c3cccnc3)nn2-c2ccc(Cl)c(Cl)c2)C1(C)C)C(Cc1ccccc1)C(N)=O (stereo partly shown) |
| yes | CC1(C)[C@@H](CNC(=O)[C@@H](N)Cc2ccccc2)C[C@H]1c1cc(-c2cccnc2)nn1-c1ccc(Cl)c(Cl)c1 |
| no | CC1(C)[C@@H](CCNC(Cc2ccccc2)C(N)=O)C[C@H]1c1cc(-c2cccnc2)nn1-c1ccc(Cl)c(Cl)c1 (stereo partly shown) |
